Data taken from ChEMBL document CHEMBL3885861, “Open TG-GATES”.

Species on record: Rattus norvegicus
Assay: Open TG-GATES - Regimen: Daily Repeat
Assay type: toxicity, organism-based, Sprague-Dawley
Design: regimen Daily Repeat, gender Male, age 6 weeks
Conditions: in vivo, po, 0 mg/kg, route gavage, dose level Control; for APTT / Bas / Eos / Fbg / Hb / Ht / Lym / MCH / MCHC / MCV / Mono / Neu / PT / Plat / RBC / Ret / WBC: tissue Blood; for KIDNEY_L / KIDNEY_R / KIDNEY_TOTAL: tissue Kidney; for LIVER: tissue Liver; for A/G / ALP / ALT / AST / BUN / CRE / Ca / Cl / DBIL / GLC / IP / K / LDH / Na / PL / RALB / TBIL / TC / TG / TP / gamma-GTP: tissue Plasma

O=NN(CCCl)C(=O)NC1CCCCC1 [LOMUSTINE]
TERMINAL_BW (72 h, time 3 day): 220.6 g
APTT (72 h, time 3 day): 17.7 s
Bas (72 h, time 3 day): 0%
Eos (72 h, time 3 day): 0.6%
Fbg (72 h, time 3 day): 234 mg/dL
Hb (72 h, time 3 day): 13.5 g/dL
Ht (72 h, time 3 day): 40.6%
Lym (72 h, time 3 day): 76.8%
MCH (72 h, time 3 day): 21.8 pg
MCHC (72 h, time 3 day): 33.3%
MCV (72 h, time 3 day): 65.5 fL
Mono (72 h, time 3 day): 6.4%
Neu (72 h, time 3 day): 16.2%
PT (72 h, time 3 day): 11.8 s
Plat (72 h, time 3 day): 108.6 x10_4/uL
RBC (72 h, time 3 day): 619.4 x10_4/ul
Ret (72 h, time 3 day): 7.2%
WBC (72 h, time 3 day): 131.9 x10_2/uL
KIDNEY_L (72 h, time 3 day): 1 g
KIDNEY_R (72 h, time 3 day): 1 g
KIDNEY_TOTAL (72 h, time 3 day): 2 g
LIVER (72 h, time 3 day): 10.5 g
A/G (72 h, time 3 day): 2
ALP (72 h, time 3 day): 1042.6 IU/L
ALT (72 h, time 3 day): 33.6 IU/L
AST (72 h, time 3 day): 69.4 IU/L
BUN (72 h, time 3 day): 18 mg/dL
CRE (72 h, time 3 day): 0.5 mg/dL
Ca (72 h, time 3 day): 11 mg/dL
Cl (72 h, time 3 day): 104.4 meq/L
DBIL (72 h, time 3 day): 0.006 mg/dL
GLC (72 h, time 3 day): 186.2 mg/dL
IP (72 h, time 3 day): 8.5 mg/dL
K (72 h, time 3 day): 5.1 meq/L
LDH (72 h, time 3 day): 99.8 IU/L
Na (72 h, time 3 day): 140 meq/L
PL (72 h, time 3 day): 147.6 mg/dL
RALB (72 h, time 3 day): 3.9 g/dL
TBIL (72 h, time 3 day): 0.4 mg/dL
TC (72 h, time 3 day): 74.8 mg/dL
TG (72 h, time 3 day): 114.6 mg/dL
TP (72 h, time 3 day): 5.9 g/dL
gamma-GTP (72 h, time 3 day): 2 IU/L
TERMINAL_BW ([…], time 7 day): 258.9 g
TERMINAL_BW ([…], time 14 day): 305.2 g
TERMINAL_BW ([…], time 28 day): 379.6 g
APTT ([…], time 7 day): 17.7 s
Bas ([…], time 7 day): 0%
Eos ([…], time 7 day): 1%
Fbg ([…], time 7 day): 241.8 mg/dL
Hb ([…], time 7 day): 13.4 g/dL
Ht ([…], time 7 day): 40.2%
Lym ([…], time 7 day): 79.6%
MCH ([…], time 7 day): 21.8 pg
MCHC ([…], time 7 day): 33.4%
MCV ([…], time 7 day): 65.2 fL
Mono ([…], time 7 day): 6%
Neu ([…], time 7 day): 14.2%
PT ([…], time 7 day): 11.4 s
Plat ([…], time 7 day): 107.5 x10_4/uL
RBC ([…], time 7 day): 617.4 x10_4/ul
Ret ([…], time 7 day): 7.2%
WBC ([…], time 7 day): 161 x10_2/uL
APTT ([…], time 14 day): 16.7 s
Bas ([…], time 14 day): 0%
Eos ([…], time 14 day): 0.4%
Fbg ([…], time 14 day): 224.4 mg/dL
Hb ([…], time 14 day): 14.1 g/dL
Ht ([…], time 14 day): 42%
Lym ([…], time 14 day): 80.8%
MCH ([…], time 14 day): 20.3 pg
MCHC ([…], time 14 day): 33.5%
MCV ([…], time 14 day): 60.7 fL
Mono ([…], time 14 day): 6.8%
Neu ([…], time 14 day): 11.8%
PT ([…], time 14 day): 11.4 s
Plat ([…], time 14 day): 119.2 x10_4/uL
RBC ([…], time 14 day): 693.2 x10_4/ul
Ret ([…], time 14 day): 4.9%
WBC ([…], time 14 day): 145.5 x10_2/uL
APTT ([…], time 28 day): 17.5 s
Bas ([…], time 28 day): 0%
Eos ([…], time 28 day): 1%
Fbg ([…], time 28 day): 250.6 mg/dL
Hb ([…], time 28 day): 15 g/dL
Ht ([…], time 28 day): 44.9%
Lym ([…], time 28 day): 82.8%
MCH ([…], time 28 day): 19.2 pg
MCHC ([…], time 28 day): 33.5%
MCV ([…], time 28 day): 57.3 fL
Mono ([…], time 28 day): 5.4%
Neu ([…], time 28 day): 10.8%
PT ([…], time 28 day): 11.9 s
Plat ([…], time 28 day): 107.1 x10_4/uL
RBC ([…], time 28 day): 783 x10_4/ul
Ret ([…], time 28 day): 2.5%
WBC ([…], time 28 day): 166.4 x10_2/uL
KIDNEY_L ([…], time 7 day): 1.2 g
KIDNEY_R ([…], time 7 day): 1.1 g
KIDNEY_TOTAL ([…], time 7 day): 2.3 g
KIDNEY_L ([…], time 14 day): 1.1 g
KIDNEY_R ([…], time 14 day): 1.2 g
KIDNEY_TOTAL ([…], time 14 day): 2.3 g
KIDNEY_L ([…], time 28 day): 1.4 g
KIDNEY_R ([…], time 28 day): 1.4 g
KIDNEY_TOTAL ([…], time 28 day): 2.7 g
LIVER ([…], time 7 day): 12.8 g
LIVER ([…], time 14 day): 14.1 g
LIVER ([…], time 28 day): 15.1 g
A/G ([…], time 7 day): 1.8
ALP ([…], time 7 day): 746 IU/L
ALT ([…], time 7 day): 36.6 IU/L
AST ([…], time 7 day): 59 IU/L
BUN ([…], time 7 day): 19.2 mg/dL
CRE ([…], time 7 day): 0.5 mg/dL
Ca ([…], time 7 day): 10.9 mg/dL
Cl ([…], time 7 day): 105.2 meq/L
DBIL ([…], time 7 day): 0.012 mg/dL
GLC ([…], time 7 day): 186 mg/dL
IP ([…], time 7 day): 7.5 mg/dL
K ([…], time 7 day): 4.9 meq/L
LDH ([…], time 7 day): 85 IU/L
Na ([…], time 7 day): 140.4 meq/L
PL ([…], time 7 day): 168.2 mg/dL
RALB ([…], time 7 day): 3.9 g/dL
TBIL ([…], time 7 day): 0.3 mg/dL
TC ([…], time 7 day): 90 mg/dL
TG ([…], time 7 day): 113.2 mg/dL
TP ([…], time 7 day): 6.1 g/dL
gamma-GTP ([…], time 7 day): 1 IU/L
A/G ([…], time 14 day): 2
ALP ([…], time 14 day): 859 IU/L
ALT ([…], time 14 day): 34 IU/L
AST ([…], time 14 day): 63.4 IU/L
BUN ([…], time 14 day): 20.2 mg/dL
CRE ([…], time 14 day): 0.5 mg/dL
Ca ([…], time 14 day): 11.3 mg/dL
Cl ([…], time 14 day): 106.8 meq/L
DBIL ([…], time 14 day): 0.014 mg/dL
GLC ([…], time 14 day): 183 mg/dL
IP ([…], time 14 day): 7.4 mg/dL
K ([…], time 14 day): 4.7 meq/L
LDH ([…], time 14 day): 85.6 IU/L
Na ([…], time 14 day): 140.2 meq/L
PL ([…], time 14 day): 167.6 mg/dL
RALB ([…], time 14 day): 4 g/dL
TBIL ([…], time 14 day): 0.3 mg/dL
TC ([…], time 14 day): 81 mg/dL
TG ([…], time 14 day): 118.6 mg/dL
TP ([…], time 14 day): 6.2 g/dL
gamma-GTP ([…], time 14 day): 2 IU/L
A/G ([…], time 28 day): 1.6
ALP ([…], time 28 day): 681.8 IU/L
ALT ([…], time 28 day): 32.2 IU/L
AST ([…], time 28 day): 63.4 IU/L
BUN ([…], time 28 day): 19 mg/dL
CRE ([…], time 28 day): 0.4 mg/dL
Ca ([…], time 28 day): 10.8 mg/dL
Cl ([…], time 28 day): 106 meq/L
DBIL ([…], time 28 day): 0.012 mg/dL
GLC ([…], time 28 day): 189.8 mg/dL
IP ([…], time 28 day): 6.3 mg/dL
K ([…], time 28 day): 4.6 meq/L
LDH ([…], time 28 day): 86.4 IU/L
Na ([…], time 28 day): 140 meq/L
PL ([…], time 28 day): 148.4 mg/dL
RALB ([…], time 28 day): 4 g/dL
TBIL ([…], time 28 day): 0.3 mg/dL
TC ([…], time 28 day): 71 mg/dL
TG ([…], time 28 day): 122.2 mg/dL
TP ([…], time 28 day): 6.4 g/dL
gamma-GTP ([…], time 28 day): 1.8 IU/L
